Measured values from article PMC8086144, “A novel peptide antagonist of the human growth hormone receptor” (The Journal of Biological Chemistry, 2021).

Tests used:
hGHR [1] = target: T1, hGHR (Homo sapiens, UniProt P10912); assay: hGH-mediated pSTAT5 in SK-MEL-28 cells, ELISA; assay type: cell-based; conditions: SK-MEL-28, 20 min, ELISA (pSTAT5A Y694/pSTAT5B Y699), SK-MEL-28 cells co-treated with hGH and 200 nM peptide, Equation 2, triplicate
T1 construct: previously reported to express high levels of endogenous hGHR; host or cells: SK-MEL-28, MALME-3M, IM9
T1 sequence (P10912 19-638): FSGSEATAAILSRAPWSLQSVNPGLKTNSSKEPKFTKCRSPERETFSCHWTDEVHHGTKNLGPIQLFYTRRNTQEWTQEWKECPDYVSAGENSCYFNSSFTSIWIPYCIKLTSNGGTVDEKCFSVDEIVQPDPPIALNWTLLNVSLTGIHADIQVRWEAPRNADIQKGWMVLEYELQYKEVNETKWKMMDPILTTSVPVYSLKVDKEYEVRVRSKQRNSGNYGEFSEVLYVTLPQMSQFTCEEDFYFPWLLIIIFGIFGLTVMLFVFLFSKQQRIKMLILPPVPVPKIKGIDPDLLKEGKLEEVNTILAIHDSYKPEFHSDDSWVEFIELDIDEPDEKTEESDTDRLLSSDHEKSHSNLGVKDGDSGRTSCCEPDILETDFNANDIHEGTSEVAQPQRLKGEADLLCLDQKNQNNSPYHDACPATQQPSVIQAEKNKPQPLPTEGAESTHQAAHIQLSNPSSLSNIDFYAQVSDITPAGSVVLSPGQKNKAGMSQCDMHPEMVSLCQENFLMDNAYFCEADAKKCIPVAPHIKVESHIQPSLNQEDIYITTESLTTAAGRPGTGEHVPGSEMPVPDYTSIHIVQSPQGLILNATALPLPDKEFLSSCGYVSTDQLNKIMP
Procedure: SK-MEL-28, MALME-3M, and T84 cells were grown and maintained in Eagle's Minimal Essential Medium. IM9 and L cells were grown in RPMI-1640 media and Dulbecco's modified Eagle's medium, respectively. All growth media was supplemented with 10% fetal bovine serum and 1× antibiotic-antimycotic […] solution. Cells were grown at 37 °C under a 5% CO2 atmosphere in a humidified incubator, and growth media was replaced every 48 h during incubation. No hGH was present in or added to the growth media unless specifically indicated. Between 12 to 16 h after seeding, adherent cells (SK-MEL-28, MALME-3M, T84, L cells) were switched to serum-free growth media (no GH) and starved for 4 h before the addition of hGH, bGH (L cells), hPRL (MALME-3M and T84 cells), or buffer at the concentrations noted. Cells were then allowed to incubate for an additional 20 min before being harvested. For suspended cell treatments, IM9 cells were pelleted by centrifugation at 140g for 5 min at room temperature. The supernatant was then removed by aspiration, and the cells were resuspended in serum-free media. The cells were then starved for 4 h at 37 °C under a 5% CO2 atmosphere in a humidified incubator and subsequently treated with hGH, S1H, or both at the indicated concentrations for 20 min before harvesting by centrifugation.
Following treatment, the cells were harvested at the indicated time points, and the total protein was extracted. To affect protein extraction, the treatment media was removed by aspiration, and the cells were washed twice with ice-cold PBS. Following washing, total protein was extracted from the cells using RIPA buffer (100 μl/million cells) supplemented with 1.5× Halt protease and phosphatase inhibitor cocktail. Briefly, chilled RIPA buffer was added to the cells, and the lysis reaction was allowed to incubate for 5 min at 4 °C. Adherent cells were harvested for lysis using a sterile cell scraper. The resultant cell suspensions were sonicated on ice for 60 s with ON (2-s)/OFF (1-s) pulses at 2% power. The cell lysate was then cleared by centrifugation at 8000g for 10 min at 4 °C. Following centrifugation, the supernatant was collected and stored at −80 °C until further use. Sample protein concentration was quantified using a Bradford assay with bovine serum albumin as the protein standard. Absorbance at 595 nm was measured using a Spectramax 250 multimode plate reader (Molecular Devices) and processed using SoftmaxPro v4.7.1 software.
Intracellular pSTAT5A (Y694) and pSTAT5B (Y699) levels were quantified from clarified protein samples using an InstantOne ELISA kit (Thermo Fisher) according to the manufacturer’s instructions. Briefly, 50 μl of protein sample (1 mg/ml) were added to wells containing 50 μl antibody cocktail in a 96-well plate and incubated at room temperature for 2 h with shaking (300 rpm). Following incubation, the wells were washed, and the bound antibodies were detected by adding detection regent and incubating the plate for 1 h at room temperature with shaking (300 rpm). Following incubation, stop reagent was added, and the absorbance was read at 450 nm using a UV-VIS spectrophotometer (Molecular Devices, model M2). All experiments were performed in triplicate. Percent pSTAT5 inhibition was calculated from background-subtracted pSTAT5 levels using Equation 2:(2) %inhibition=100×(pSTAT5hGH−pSTAT5PI)/pSTAT5hGH where pSTAT5hGH is the fold-induction of pSTAT5 upon treatment with hGH alone and pSTAT5PI is the fold-induction of pSTAT5 upon co-treatment with hGH and peptide inhibitor.

hGHR [2] = target: T1, hGHR; assay: hGH-mediated pSTAT5 in IM9 cells, Western blot; assay type: cell-based; conditions: 200 nM S1H with 2.5 nM hGH, 20 min, Western blot densitometry, n = 3
Procedure: SK-MEL-28, MALME-3M, and T84 cells were grown and maintained in Eagle's Minimal Essential Medium. IM9 and L cells were grown in RPMI-1640 media and Dulbecco's modified Eagle's medium, respectively. All growth media was supplemented with 10% fetal bovine serum and 1× antibiotic-antimycotic […] solution. Cells were grown at 37 °C under a 5% CO2 atmosphere in a humidified incubator, and growth media was replaced every 48 h during incubation. No hGH was present in or added to the growth media unless specifically indicated. […]
Following treatment, the cells were harvested at the indicated time points, and the total protein was extracted. […] Sample protein concentration was quantified using a Bradford assay with bovine serum albumin as the protein standard. Absorbance at 595 nm was measured using a Spectramax 250 multimode plate reader (Molecular Devices) and processed using SoftmaxPro v4.7.1 software.
Cytosolic fractions from treated cells were thawed on ice, and 80 μg protein was loaded onto polyacrylamide gels for separation by SDS-PAGE. […] Chemiluminescence signals were detected using a GelDoc (BioRad) fluorescence imager. […] Percent inhibition was then measured by subtracting the pSTAT5 band intensity in each lane from the pSTAT5 band intensity of hGH-treated samples. […]

inhibition at 0.2 µM (hGHR [1]): 98.3%
suppression of hGH-mediated pSTAT5 (hGHR [2]): 67%
SMILES: CC[C@H](C)[C@H](NC(=O)[C@H](Cc1ccc(O)cc1)NC(C)=O)C(=O)N1CCC[C@H]1C(=O)N[C@@H](CCCCN)C(=O)N[C@@H](CCC(=O)O)C(=O)N[C@@H](CCC(N)=O)C(=O)N[C@@H](CCCCN)C(=O)N[C@@H](Cc1ccc(O)cc1)C(=O)N[C@@H](CO)C(=O)N[C@@H](Cc1ccccc1)C(=O)N[C@@H](CC(C)C)C(=O)N[C@@H](CCC(N)=O)C(=O)N[C@@H](CC(N)=O)C(=O)N1CCC[C@H]1C(=O)N[C@@H](CCC(N)=O)C(=O)N[C@H](C(N)=O)[C@@H](C)O [S1H]
